# Test results taken from article PMC6007937, “A cell-based infection assay identifies efflux pump modulators that reduce bacterial intracellular load” (PLoS Pathogens, 2018).
# Read-outs that look alike come from different tables or passages of the source.
# Target: AcrB (Escherichia coli, UniProt P31224)
# Test: isothermal titration calorimetry (ITC)
# Format: binding
# Sequence of AcrB (P31224 whole entry): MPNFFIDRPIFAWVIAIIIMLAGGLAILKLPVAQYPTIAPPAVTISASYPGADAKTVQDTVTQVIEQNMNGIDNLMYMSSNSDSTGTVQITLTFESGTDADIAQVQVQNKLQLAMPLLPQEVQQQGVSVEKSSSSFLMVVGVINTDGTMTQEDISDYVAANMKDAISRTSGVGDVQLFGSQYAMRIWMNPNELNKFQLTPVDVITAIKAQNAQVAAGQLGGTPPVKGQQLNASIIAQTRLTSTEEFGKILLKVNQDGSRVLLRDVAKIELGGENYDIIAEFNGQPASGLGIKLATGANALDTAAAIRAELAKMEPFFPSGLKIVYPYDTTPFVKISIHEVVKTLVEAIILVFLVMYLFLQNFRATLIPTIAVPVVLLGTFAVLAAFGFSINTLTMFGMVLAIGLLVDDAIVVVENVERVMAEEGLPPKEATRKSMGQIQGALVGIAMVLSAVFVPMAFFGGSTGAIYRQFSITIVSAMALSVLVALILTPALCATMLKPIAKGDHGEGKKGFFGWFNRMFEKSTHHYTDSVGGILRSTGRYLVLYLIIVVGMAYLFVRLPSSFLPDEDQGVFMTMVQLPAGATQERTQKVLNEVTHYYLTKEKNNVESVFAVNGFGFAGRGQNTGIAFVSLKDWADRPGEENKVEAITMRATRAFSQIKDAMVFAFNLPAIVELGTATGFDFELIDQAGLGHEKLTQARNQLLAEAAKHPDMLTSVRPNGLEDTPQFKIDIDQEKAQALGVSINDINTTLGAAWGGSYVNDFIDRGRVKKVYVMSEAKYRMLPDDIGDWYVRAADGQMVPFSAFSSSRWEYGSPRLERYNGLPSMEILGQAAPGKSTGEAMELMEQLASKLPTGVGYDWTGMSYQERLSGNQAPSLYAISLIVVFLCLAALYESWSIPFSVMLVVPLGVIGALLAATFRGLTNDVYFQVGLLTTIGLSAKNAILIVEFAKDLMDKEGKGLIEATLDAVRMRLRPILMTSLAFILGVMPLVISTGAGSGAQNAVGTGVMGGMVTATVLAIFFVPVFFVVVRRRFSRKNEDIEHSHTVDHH
SMILES,Kd (read-out: KD) [nM],Kd [nM]
CC(C)(C)c1nc(NC(=N)N)sc1Br [EPM30],1790 ± 370,
OC(COc1ccc(Cl)c(Cl)c1)CN1CCC(Nc2nccc(C(F)(F)F)n2)CC1 (stereo not drawn) [EPM35],,290 ± 30
Cc1ccc(Sc2cccc3nc(N)nc(N)c23)cc1 [EPM43],560 ± 60,
